One data set has as its target Melanocortin receptor 3 (Homo sapiens, UniProt P41968). Format: cell membranes, Membrane. Particulars: hek293. Further: in other assays of this panel Not Active means under 50% inhibition at 10 µM.
Data set [1] has as its target Tyrosine-protein kinase Fyn (Homo sapiens, UniProt P06241). The data set can be described thus: biochemical. Type of data set: cell-based, Insect cells.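 Further: enzymatic inhibition of Fyn kinase activity measured with Poly(Glu:Tyr) as the phosphorylation substrate; in other assays of this panel Not Active means under 50% inhibition at 10 µM.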
In data set [2] the target is T1, Amine oxidase [flavin-containing] A (Homo sapiens, UniProt P21397).
T1 sequence (P21397 whole entry): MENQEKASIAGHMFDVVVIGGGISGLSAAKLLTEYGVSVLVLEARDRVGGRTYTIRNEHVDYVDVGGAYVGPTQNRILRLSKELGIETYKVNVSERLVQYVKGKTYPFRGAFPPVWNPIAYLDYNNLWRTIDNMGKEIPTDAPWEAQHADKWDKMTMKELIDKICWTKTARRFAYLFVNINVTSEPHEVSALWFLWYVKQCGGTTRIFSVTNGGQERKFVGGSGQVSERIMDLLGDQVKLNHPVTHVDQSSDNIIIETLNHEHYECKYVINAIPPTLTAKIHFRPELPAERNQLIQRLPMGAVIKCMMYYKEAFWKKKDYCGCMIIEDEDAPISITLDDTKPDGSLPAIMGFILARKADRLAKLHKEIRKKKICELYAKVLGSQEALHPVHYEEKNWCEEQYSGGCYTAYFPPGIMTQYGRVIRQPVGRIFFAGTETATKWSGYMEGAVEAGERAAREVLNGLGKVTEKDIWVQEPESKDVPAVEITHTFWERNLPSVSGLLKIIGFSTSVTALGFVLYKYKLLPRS
The data set can be described thus: DRUGMATRIX: Monoamine Oxidase MAO-A enzyme inhibition (substrate: Kynuramine). The arrangement: species or system BTI-TN-5B1-4. Particulars: bti-tn-5b1-4; Not Active = under 50% inhibition at 10 µM.

The next data set concerns the target Cytochrome P450 3A4 (Homo sapiens, UniProt P08684). Particulars: bti-tn-5b1-4. Further: in other assays of this panel Not Active means under 50% inhibition at 10 µM.
In data set [3] the target is T2, Alpha-1A adrenergic receptor (Rattus norvegicus, UniProt P43140).
T2 sequence (P43140 whole entry): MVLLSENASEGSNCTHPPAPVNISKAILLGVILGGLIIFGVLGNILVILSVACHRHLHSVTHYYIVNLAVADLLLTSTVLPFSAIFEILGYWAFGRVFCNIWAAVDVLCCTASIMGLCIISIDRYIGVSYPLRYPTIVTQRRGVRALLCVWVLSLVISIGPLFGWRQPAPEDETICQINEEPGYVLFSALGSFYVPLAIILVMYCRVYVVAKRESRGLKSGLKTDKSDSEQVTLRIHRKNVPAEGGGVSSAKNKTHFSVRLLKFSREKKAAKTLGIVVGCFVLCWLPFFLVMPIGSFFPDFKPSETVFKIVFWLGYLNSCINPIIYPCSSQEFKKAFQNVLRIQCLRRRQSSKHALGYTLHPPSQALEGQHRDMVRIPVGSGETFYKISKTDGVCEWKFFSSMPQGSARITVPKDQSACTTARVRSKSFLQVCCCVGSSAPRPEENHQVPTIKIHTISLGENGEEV
Nature of the data set: DRUGMATRIX: Alpha-1A adrenergic receptor radioligand binding (ligand: prazosin). Type of data set: cell membranes, Wistar, Submaxillary gland, Membrane. Particulars: Not Active = under 50% inhibition at 10 µM.

Data set [4] has as its target Receptor tyrosine-protein kinase erbB-2 (Homo sapiens, UniProt P04626). The data set can be described thus: biochemical. Particulars: insect cells. Type of data set: cell-based, Insect cells.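 Further: inhibition of HER2 kinase enzyme activity, measured with Poly(Glu:Tyr) as the phosphorylation substrate; in other assays of this panel Not Active means under 50% inhibition at 10 µM.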
Another data set addresses T3, Cathepsin G (Homo sapiens, UniProt P08311).
T3 sequence (P08311 whole entry): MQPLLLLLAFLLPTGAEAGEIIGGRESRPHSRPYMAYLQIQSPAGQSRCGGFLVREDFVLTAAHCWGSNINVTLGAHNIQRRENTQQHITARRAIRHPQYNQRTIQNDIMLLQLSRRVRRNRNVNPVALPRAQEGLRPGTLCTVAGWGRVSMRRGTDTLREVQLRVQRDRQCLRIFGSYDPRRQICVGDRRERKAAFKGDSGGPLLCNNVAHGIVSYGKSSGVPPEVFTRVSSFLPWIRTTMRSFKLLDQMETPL
Type of data set: tissue-based. Particulars: neutrophil.

The values that follow come from ChEMBL document CHEMBL1909046, “DrugMatrix in vitro pharmacology data”.

By IC50 is commonly meant the concentration at which inhibition is half-maximal.

Melanocortin receptor 3, sequence (P41968 whole entry): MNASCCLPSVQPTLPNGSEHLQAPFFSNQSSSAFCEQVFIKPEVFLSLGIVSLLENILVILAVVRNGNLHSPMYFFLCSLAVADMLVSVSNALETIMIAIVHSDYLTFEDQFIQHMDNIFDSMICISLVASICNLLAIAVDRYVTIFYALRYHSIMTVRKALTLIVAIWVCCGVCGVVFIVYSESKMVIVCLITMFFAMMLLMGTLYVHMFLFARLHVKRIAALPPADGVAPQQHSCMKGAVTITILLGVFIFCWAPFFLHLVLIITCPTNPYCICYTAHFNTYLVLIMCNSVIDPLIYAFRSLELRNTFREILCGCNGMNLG
Tyrosine-protein kinase Fyn, sequence (P06241 whole entry): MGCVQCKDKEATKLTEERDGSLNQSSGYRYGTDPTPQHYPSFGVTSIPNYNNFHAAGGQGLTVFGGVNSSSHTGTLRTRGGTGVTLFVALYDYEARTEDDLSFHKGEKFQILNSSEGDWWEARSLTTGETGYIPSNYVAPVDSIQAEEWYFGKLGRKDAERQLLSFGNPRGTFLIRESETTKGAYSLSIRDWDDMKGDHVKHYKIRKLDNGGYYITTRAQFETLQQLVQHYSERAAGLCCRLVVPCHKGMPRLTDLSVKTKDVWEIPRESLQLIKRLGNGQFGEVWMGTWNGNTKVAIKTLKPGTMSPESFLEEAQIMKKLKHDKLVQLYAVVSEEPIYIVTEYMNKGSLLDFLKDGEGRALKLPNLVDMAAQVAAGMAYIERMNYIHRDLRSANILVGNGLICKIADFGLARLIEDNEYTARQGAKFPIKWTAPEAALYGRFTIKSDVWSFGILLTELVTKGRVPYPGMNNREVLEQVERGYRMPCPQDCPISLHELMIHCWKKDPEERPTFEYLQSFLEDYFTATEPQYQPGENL
Cytochrome P450 3A4, sequence (P08684 whole entry): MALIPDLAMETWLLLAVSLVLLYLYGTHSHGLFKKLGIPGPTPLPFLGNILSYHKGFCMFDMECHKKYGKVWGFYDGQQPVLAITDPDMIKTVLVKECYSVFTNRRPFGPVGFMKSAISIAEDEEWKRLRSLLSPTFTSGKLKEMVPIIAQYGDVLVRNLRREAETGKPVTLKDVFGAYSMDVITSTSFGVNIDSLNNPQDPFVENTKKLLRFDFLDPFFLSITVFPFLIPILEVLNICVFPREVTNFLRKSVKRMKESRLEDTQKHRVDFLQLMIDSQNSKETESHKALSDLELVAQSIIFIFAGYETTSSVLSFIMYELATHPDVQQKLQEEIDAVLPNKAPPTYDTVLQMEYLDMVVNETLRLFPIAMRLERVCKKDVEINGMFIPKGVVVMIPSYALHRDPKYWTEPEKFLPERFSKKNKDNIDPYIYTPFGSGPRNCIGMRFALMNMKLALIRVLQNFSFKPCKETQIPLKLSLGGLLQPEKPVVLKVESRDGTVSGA

As for `Nc1ccc(S(=O)(=O)NC(=O)c2ccccc2)cc1` [SULFABENZAMIDE], the IC50 entry (against Melanocortin receptor 3; in data set [1] (insect cells); in data set [2]; at Cytochrome P450 3A4; in data set [3]; in data set [4]) was “Not Active” in each case. The half-inhibitory concentration (IC50) entry against Cathepsin G is on record as “Not Active”. The Ki entry at Cytochrome P450 3A4 is reported as “Not Active”.
Turning to `CCCCCCCCNC(C)C(O)c1ccc(SC(C)C)cc1` (stereo not given) [SULOCTIDIL], the IC50 entry is “Not Active” at Melanocortin receptor 3; 0.722 µM in data set [1] (read-out: IC50); “Not Active” in data set [2]; “Not Active” on Cytochrome P450 3A4; “Not Active” in data set [3]; “Not Active” in data set [4]. On Cathepsin G, the 50% inhibitory concentration (IC50) entry is listed as “Not Active”. At Cytochrome P450 3A4, the Ki entry is listed as “Not Active”.
Turning to `O=c1[nH]c(=O)n(C2CCCO2)cc1F` (stereo not given) [TEGAFUR], the IC50 entry (at Melanocortin receptor 3; in data set [1] (insect cells); in data set [2]; at Cytochrome P450 3A4; in data set [3]; in data set [4]) was “Not Active” each time. The IC50 result against Cathepsin G is “Not Active”. In addition, the Ki result on Cytochrome P450 3A4 is “Not Active”.
As to `CC(=N)S` [THIOACETAMIDE], the IC50 entry (on Melanocortin receptor 3; in data set [1] (insect cells); in data set [2]; against Cytochrome P450 3A4; in data set [3]; in data set [4]) was “Not Active” each time. Also, the half-inhibitory concentration (IC50) result at Cathepsin G is given as “Not Active”. The Ki entry at Cytochrome P450 3A4 is given as “Not Active”.
Consider `Cc1ccc(C(=O)c2ccc(CC(=O)O)n2C)cc1` [TOLMETIN], for which the IC50 entry (against Melanocortin receptor 3; in data set [1] (insect cells); in data set [2]; on Cytochrome P450 3A4; in data set [3]; in data set [4]) was “Not Active” in each case. Further, the IC50 entry at Cathepsin G was “Not Active”. At Cytochrome P450 3A4, the Ki entry is “Not Active”.
In the case of `CC(=O)OCC(COC(C)=O)OC(C)=O` [TRIACETIN], the concentration for half-maximal inhibition (IC50) result (against Melanocortin receptor 3; in data set [1] (insect cells); in data set [2]; on Cytochrome P450 3A4; in data set [3]; in data set [4]) was “Not Active” throughout. Besides, the concentration for half-maximal inhibition (IC50) result on Cathepsin G is given as “Not Active”. Besides, the Ki entry on Cytochrome P450 3A4 is “Not Active”.
TRANSPLATIN: the 50% inhibitory concentration (IC50) entry against Melanocortin receptor 3 was “Not Active”; in data set [1] (insect cells, read-out: IC50) it was 0.565 µM; in data set [2], “Not Active”; against Cytochrome P450 3A4, “Not Active”; in data set [3], “Not Active”; in data set [4] it was “Not Active”. The IC50 result on Cathepsin G is listed as “Not Active”. For the same molecule, the Ki entry (at Melanocortin receptor 3; in data set [2]; on Cytochrome P450 3A4; in data set [3]; in data set [4]; at Cathepsin G) was “Not Active” in each case.
As to ZIRCONIUM(IV) CHLORIDE, the half-inhibitory concentration (IC50) result (against Melanocortin receptor 3; in data set [1] (insect cells); in data set [2]; against Cytochrome P450 3A4; in data set [3]; in data set [4]) was “Not Active” in each case. The concentration for half-maximal inhibition (IC50) entry at Cathepsin G was “Not Active”. The Ki entry (at Melanocortin receptor 3; in data set [1] (insect cells); in data set [2]; at Cytochrome P450 3A4; in data set [3]; in data set [4]) was “Not Active” each time. Moreover, the Ki result on Cathepsin G is “Not Active”.
